The nature of data set [1]: Compound stability in rat liver microsomes. Type of data set: in vitro ADME. As to conditions: pH 7.4; for half-life at 5 μM: rat liver microsomes 0.5 mg protein/mL, compound 5 μM, NADPH 1.0 mM, 37° C.; for CLint scaled at 5 μM: rat liver microsomes, in vivo CLint extrapolated.
A further data set deals with PI3K (p110δ/p85α) (h) (Homo sapiens (Human), UniProt O00329). Briefly: PI3K (p110δ/p85α) (h) non-radioactive HTRF kinase assay. Type of data set: biochemical. (Time-resolved FRET reads energy transfer from a long-lived donor to a nearby acceptor.)
Data set [2] in a line: Pharmacokinetics after intravenous and oral administration in rats. The following applies: for clearance (CL) / AUC(0-t) / half-life / Vd: iv dosing, dose 1 mg/kg; for bioavailability / AUC(0-t) / half-life / Vd: rat, plasma; for bioavailability: iv dose 1 mg/kg, oral dose generally 5 or 10 mg/kg; for Vd: read-out: Vss. The format is in vivo, rat.
Data set [3] is described as follows: Compound stability in human liver microsomes. The following applies: for half-life at 5 μM: human liver microsomes 0.5 mg protein/mL, compound 5 μM, NADPH 1.0 mM, 37° C.; for CLint scaled at 5 μM: human liver microsomes, in vivo CLint extrapolated. Type of data set: in vitro ADME.

The structures appear in SMILES notation. pIC50: −log10 of the molar value.

Sequence of PI3K (p110δ/p85α) (h) (O00329 whole entry): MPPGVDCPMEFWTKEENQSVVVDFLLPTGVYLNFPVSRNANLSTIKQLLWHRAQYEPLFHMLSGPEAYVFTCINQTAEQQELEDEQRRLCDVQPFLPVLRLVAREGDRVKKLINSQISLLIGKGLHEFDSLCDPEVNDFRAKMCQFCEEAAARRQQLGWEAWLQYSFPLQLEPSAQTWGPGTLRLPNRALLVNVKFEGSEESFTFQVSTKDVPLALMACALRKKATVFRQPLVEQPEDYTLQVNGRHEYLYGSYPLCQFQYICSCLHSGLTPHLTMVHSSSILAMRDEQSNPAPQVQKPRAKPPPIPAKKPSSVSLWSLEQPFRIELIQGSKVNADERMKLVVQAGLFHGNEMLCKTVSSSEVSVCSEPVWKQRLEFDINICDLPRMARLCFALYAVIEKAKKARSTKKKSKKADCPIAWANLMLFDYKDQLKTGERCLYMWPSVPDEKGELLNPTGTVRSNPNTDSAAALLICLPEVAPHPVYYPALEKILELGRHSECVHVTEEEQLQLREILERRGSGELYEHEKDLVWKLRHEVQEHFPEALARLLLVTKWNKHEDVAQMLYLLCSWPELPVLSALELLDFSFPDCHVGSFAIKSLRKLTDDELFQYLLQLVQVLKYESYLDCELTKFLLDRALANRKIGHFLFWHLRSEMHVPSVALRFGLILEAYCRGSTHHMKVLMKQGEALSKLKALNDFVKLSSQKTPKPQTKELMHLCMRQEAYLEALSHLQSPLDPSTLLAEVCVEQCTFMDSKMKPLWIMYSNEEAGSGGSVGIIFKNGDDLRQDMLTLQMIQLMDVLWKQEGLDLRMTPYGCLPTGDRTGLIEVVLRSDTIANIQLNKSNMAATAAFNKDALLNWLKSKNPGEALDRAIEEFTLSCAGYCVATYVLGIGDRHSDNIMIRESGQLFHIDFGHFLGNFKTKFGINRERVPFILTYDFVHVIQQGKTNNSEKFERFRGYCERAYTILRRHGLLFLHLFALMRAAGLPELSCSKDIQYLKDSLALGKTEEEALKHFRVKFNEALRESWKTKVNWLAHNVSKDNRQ
Sequence of PI3K (p110δ/p85α) (h) (P27986 whole entry partner): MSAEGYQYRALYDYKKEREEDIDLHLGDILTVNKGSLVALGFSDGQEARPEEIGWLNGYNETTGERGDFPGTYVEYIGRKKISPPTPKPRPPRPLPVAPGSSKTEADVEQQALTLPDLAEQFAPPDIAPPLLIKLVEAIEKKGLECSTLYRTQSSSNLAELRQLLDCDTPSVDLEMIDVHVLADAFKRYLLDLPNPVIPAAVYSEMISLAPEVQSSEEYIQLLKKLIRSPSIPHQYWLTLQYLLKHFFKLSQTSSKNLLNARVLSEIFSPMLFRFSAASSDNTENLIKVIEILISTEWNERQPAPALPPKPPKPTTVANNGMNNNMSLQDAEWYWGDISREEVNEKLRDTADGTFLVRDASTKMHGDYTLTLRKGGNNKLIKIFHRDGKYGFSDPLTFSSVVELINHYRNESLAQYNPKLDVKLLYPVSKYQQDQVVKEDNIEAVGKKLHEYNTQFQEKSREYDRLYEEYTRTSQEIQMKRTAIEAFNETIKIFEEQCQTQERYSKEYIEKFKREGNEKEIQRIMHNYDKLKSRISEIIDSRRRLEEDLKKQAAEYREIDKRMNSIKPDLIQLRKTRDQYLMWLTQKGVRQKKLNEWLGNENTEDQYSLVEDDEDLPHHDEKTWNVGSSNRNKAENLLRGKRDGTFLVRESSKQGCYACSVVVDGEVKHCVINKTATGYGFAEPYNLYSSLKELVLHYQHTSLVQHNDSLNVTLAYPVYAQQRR

In general, half-life refers to the time needed for the level to fall by half in the phase considered. Read a high half-life as slow loss. The term CLint scaled denotes a measure of how fast metabolising enzymes remove a compound, apart from limits set by blood flow. A word on the pIC50: it is −log10 of the IC50, conventionally taken in molar units. A word on the bioavailability: it is dose-corrected exposure relative to a reference, in per cent. Read a low bioavailability as little systemic uptake. By AUC(0-t) is commonly meant the area under the concentration-time curve up to a stated or last time point. Low values mean less exposure, high ones more exposure. In the case of `CC(C)c1noc(-c2c(N)ncnc2N[C@@H](C)c2nc3cccc(Cl)c3c(=O)n2C2CC2)n1` [Ex. 57, (S)-2-(1-((6-amino-5-(3-isopropyl-1,2,4-oxadiazol-5-yl)pyrimidin-4-yl)amino)-ethyl)-5-chloro-3-cyclopropylquinazolin-4(3H)-one], in data set [1], the half-life at 5 μM amounted to 10.4 min and the CLint scaled at 5 μM was 239 mL/min/kg. Besides, on PI3K (p110δ/p85α) (h), the pIC50 was 8.22. Further, in data set [2], the “clearance (CL)” value turned out to be 83 mL/min/kg, the bioavailability turned out to be 12.1%, the AUC(0-t) turned out to be 199 ng·h/mL and the half-life is 59.4 min. In data set [2], the Vd stood at 5.84 L/kg. Also, in data set [3], the half-life at 5 μM amounted to 18.2 min and the CLint scaled at 5 μM is 95.2 mL/min/kg.

For the compound `CC[C@H](Nc1ncnc(N)c1-c1noc(C)n1)c1nc2cccc(Cl)c2c(=O)n1C1CC1` [Ex. 12, (S)-2-(1-((6-amino-5-(5-methyl-1,2,4-oxadiazol-3-yl)pyrimidin-4-yl)amino)-propyl)-5-chloro-3-cyclopropylquinazolin-4(3H)-one], in data set [1], the half-life at 5 μM was 31 min and the CLint scaled at 5 μM is 80.2 mL/min/kg. Moreover, on PI3K (p110δ/p85α) (h), the pIC50 was 7.32. Besides, in data set [2], the “clearance (CL)” value worked out at 31.8 mL/min/kg, the bioavailability amounted to 48.9%, the area under the curve AUC(0-t) came to 518 ng·h/mL and the half-life was 76.8 min. Further, the Vd in data set [2] turned out to be 3.14 L/kg. Further, in data set [3], the half-life at 5 μM stood at 20.6 min and the CLint scaled at 5 μM is 84.6 mL/min/kg.

Regarding `CC(C)c1nc(-c2c(N)ncnc2N[C@@H](C)c2nc3cccc(Cl)c3c(=O)n2C2CC2)no1` [Ex. 59, (S)-2-(1-((6-amino-5-(5-isopropyl-1,2,4-oxadiazol-3-yl)pyrimidin-4-yl)amino)ethyl)-5-chloro-3-cyclopropylquinazolin-4(3H)-one], in data set [1], the half-life at 5 μM was found to be 3.36 min and the CLint scaled at 5 μM was 739 mL/min/kg. In addition, the negative-log IC50 (pIC50) on PI3K (p110δ/p85α) (h) was 7.70. In addition, in data set [2], the “clearance (CL)” value was 73.7 mL/min/kg, the bioavailability worked out at 3.27%, the area under the curve AUC(0-t) amounted to 229 ng·h/mL and the half-life is 115 min. Further, the Vd in data set [2] came to 7.32 L/kg. In data set [3], the half-life at 5 μM stood at 6.66 min and the CLint scaled at 5 μM is 261 mL/min/kg.

On to `CCc1nc(-c2c(N)ncnc2N[C@@H](C)c2nc3cccc(Cl)c3c(=O)n2C2CC2)no1` [Ex. 61, (S)-2-(1-((6-amino-5-(5-ethyl-1,2,4-oxadiazol-3-yl)pyrimidin-4-yl)amino)ethyl)-5-chloro-3-cyclopropylquinazolin-4(3H)-one], for which, in data set [1], the half-life at 5 μM came to 3.29 min and the CLint scaled at 5 μM was 755 mL/min/kg. On PI3K (p110δ/p85α) (h), the pIC50 was 7.36. Also, in data set [2], the “clearance (CL)” value worked out at 97.5 mL/min/kg, the area under the curve AUC(0-t) was 169 ng·h/mL, the half-life is 60 min and the Vd is 7.07 L/kg. In data set [3], the half-life at 5 μM came to 6.07 min and the CLint scaled at 5 μM was 286 mL/min/kg.

On to `CC[C@H](Nc1ncnc(N)c1-c1nnc(C)o1)c1nc2cccc(C)c2c(=O)n1C1CC1` [Ex. 20, (S)-2-(1-((6-amino-5-(5-methyl-1,3,4-oxadiazol-2-yl)pyrimidin-4-yl)amino)propyl)-3-cyclopropyl-5-methylquinazolin-4(3H)-one], for which, in data set [1], the half-life at 5 μM worked out at 9.27 min and the intrinsic clearance (CLint scaled) at 5 μM was 268 mL/min/kg. Also, the pIC50 at PI3K (p110δ/p85α) (h) is 7.31. Moreover, in data set [2], the “clearance (CL)” value turned out to be 77.3 mL/min/kg, the bioavailability was determined as 79%, the AUC(0-t) turned out to be 215 ng·h/mL and the half-life was 63 min. Further, the Vd in data set [2] stood at 6.35 L/kg. Moreover, in data set [3], the half-life at 5 μM was 9.96 min and the intrinsic clearance (CLint scaled) at 5 μM is 249 mL/min/kg.

The values above are taken from patent US9670194B2 (Calitor Sciences, LLC, priority 2013, dated 2017).
